Structures can show the parent of a compound that is named as a salt.
Tested on: Erwinia amylovora
Assay: Test for inhibitory activity against Erwinia amylovora (inhibitory zone on CYE medium plates)
Format: cell-based
Conditions: after 24 hours, read-out: Inhibitory zone diameter
Method: 10 μl of an Erwinia amylovora suspension were plated onto CYE medium at a density of 10^8 cfu/ml. Thereafter, a hole 5 mm in diameter was punched into the center of the plates, and 20 μl of the test solution were introduced. After 24 hours, the inhibitory zone was measured. The reference substance was streptomycin sulfate, and the negative control was tap water.
The product used was an aqueous solution of the preparation according to the invention in the form of granules of formic acid and/or a salt of formic acid, in particular calcium formate, whose content in formic acid and/or a salt of formic acid, in particular calcium formate, was approximately 80% by weight. This preparation was diluted with tap water to give the concentrations stated (based on the granules).

**Q.** For `[H]/N=C(/N)N[C@H]1[C@H](O)[C@@H](O)[C@H](O[C@@H]2O[C@@H](C)[C@](O)(C=O)[C@H]2O[C@@H]2O[C@@H](CO)[C@H](O)[C@@H](O)[C@@H]2NC)[C@@H](N/C(N)=N\[H])[C@@H]1O` [Streptomycin sulfate, streptomycin sulfate], which zone of inhibition at 0.001 % strength (concentration 0.001% by weight) is on record?
**A.** 16 mm

**Q.** And the zone of inhibition at 0.01 % strength (concentration 0.01% by weight)?
**A.** 20 mm

**Q.** What about the zone of inhibition at 0.1 % strength (concentration 0.1% by weight) of the same molecule?
**A.** 24 mm
